Reference: article PMC6853638, “TMC1 is an essential component of a leak channel that modulates tonotopy and excitability of auditory hair cells in mice” (eLife, 2019)
“And” between values parts separate entries of the source, which are not always exact repeats. Identical values can stand only once. Like-named read-outs stand apart in the source and are kept apart here.

How the values were obtained:
[1] = target: T1, TMC1-mediated leak conductance (Mus musculus, UniProt Q8R4P5); assay: Background/leak current (IBG) inhibition by blockers, whole-cell voltage clamp of OHCs; format: cell-based
T1 sequence (Q8R4P5 1-757): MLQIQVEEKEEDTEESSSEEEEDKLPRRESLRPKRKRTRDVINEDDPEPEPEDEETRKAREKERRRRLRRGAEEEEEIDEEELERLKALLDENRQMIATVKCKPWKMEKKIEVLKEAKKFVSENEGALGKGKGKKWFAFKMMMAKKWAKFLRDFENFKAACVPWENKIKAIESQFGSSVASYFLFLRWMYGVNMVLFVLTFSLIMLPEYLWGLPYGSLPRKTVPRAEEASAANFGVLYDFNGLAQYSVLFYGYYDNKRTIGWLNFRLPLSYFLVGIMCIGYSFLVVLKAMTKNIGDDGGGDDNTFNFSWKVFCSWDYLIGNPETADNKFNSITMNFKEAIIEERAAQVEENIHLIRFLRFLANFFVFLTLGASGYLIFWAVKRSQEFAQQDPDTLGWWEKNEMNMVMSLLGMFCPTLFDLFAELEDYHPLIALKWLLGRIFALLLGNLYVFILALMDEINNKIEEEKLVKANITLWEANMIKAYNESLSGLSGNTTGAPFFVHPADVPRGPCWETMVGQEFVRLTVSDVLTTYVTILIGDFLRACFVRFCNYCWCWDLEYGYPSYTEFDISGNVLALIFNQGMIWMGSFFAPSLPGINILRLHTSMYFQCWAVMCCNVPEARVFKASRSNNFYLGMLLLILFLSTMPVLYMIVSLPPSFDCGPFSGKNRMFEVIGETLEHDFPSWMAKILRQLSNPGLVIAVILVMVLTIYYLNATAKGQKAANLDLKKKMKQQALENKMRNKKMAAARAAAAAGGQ
Procedure: (§1) Hair cells were recorded using whole-cell voltage or current clamp as previously described ([Xiong et al., 2012]). All experiments were performed at room temperature (20–25°C). Briefly, the basilar membrane with hair cells was acutely dissected from neonatal mice. […] The acutely isolated or cultured basilar membrane was used for electrophysiological recording within 1 h. Hair cells were imaged under an upright microscope (BX51WI, Olympus, Tokyo, Japan) with a 60 × water immersion objective and an sCMOS camera (ORCA Flash4.0, Hamamatsu, Hamamatsu City, Japan) controlled by MicroManager 1.6 software ([Edelstein et al., 2010]). Patch pipettes were made from borosilicate glass capillaries (BF150-117-10, Sutter Instrument Co., Novato, CA) with a pipette puller (P-2000, Sutter) and polished on a microforge (MF-830, Narishige, Tokyo, Japan) to resistances of 4–6 M'Ω. […] Hair cells were recorded with a patch-clamp amplifier (EPC 10 USB and Patchmaster software, HEKA Elektronik, Lambrecht/Pfalz, Germany).
(§2) The sampling rate was 1 kHz for leak current recording, 50 kHz for the IV protocol and current-clamp recording, and 100 kHz for unitary channel recording. The voltage-clamp used a –70 mV holding potential, and the current-clamp was held at 0 pA. Only recordings with a current baseline <20 pA in NMDG solution were used for statistical analysis.
(§3) Dose-inhibition curves were fitted with a Hill equation: Ix/Imax=X^h/(K^h+X^h))
(§4) Where K is the half-inhibition dose (IC50) and h is the Hill slope. Imax is the maximal current in control condition.

MET channel [2] = target: T2, MET channel (Mus musculus, UniProt Q8R4P5); assay: Location-specific macroscopic MET current in OHCs, fluid-jet stimulation; format: cell-based; conditions: wild-type OHCs in 35 mM Ca2+
T2 construct: the basilar membrane with hair cells was acutely dissected from neonatal mice; endogenous in cells; host or cells: outer hair cells of acutely dissected neonatal mouse cochlea
Procedure: (§5) Hair cells were recorded using whole-cell voltage or current clamp as previously described ([Xiong et al., 2012]). All experiments were performed at room temperature (20–25°C). Briefly, the basilar membrane with hair cells was acutely dissected from neonatal mice. […] The acutely isolated or cultured basilar membrane was used for electrophysiological recording within 1 h. Hair cells were imaged under an upright microscope (BX51WI, Olympus, Tokyo, Japan) with a 60 × water immersion objective and an sCMOS camera (ORCA Flash4.0, Hamamatsu, Hamamatsu City, Japan) controlled by MicroManager 1.6 software ([Edelstein et al., 2010]). Patch pipettes were made from borosilicate glass capillaries (BF150-117-10, Sutter Instrument Co., Novato, CA) with a pipette puller (P-2000, Sutter) and polished on a microforge (MF-830, Narishige, Tokyo, Japan) to resistances of 4–6 M'Ω. Intracellular solution contained (in mM): 140 CsCl, 1 MgCl2, 0.1 EGTA, 2 Mg-ATP, 0.3 Na-GTP, and 10 H-HEPES, pH 7.2), except when CsCl was replaced with KCl in current-clamp. Hair cells were recorded with a patch-clamp amplifier (EPC 10 USB and Patchmaster software, HEKA Elektronik, Lambrecht/Pfalz, Germany).
(§6) For single-channel recordings, we followed published procedures ([Ricci et al., 2003]; [Xiong et al., 2012]). The intracellular solution was the same for macroscopic and microscopic current recording. […] After bundle destruction, fresh external solution was given to re-establish the corresponding extracellular ionic environment. […] Only traces with obvious single-channel events were included for analyzing.
The sampling rate was 1 kHz for leak current recording, 50 kHz for the IV protocol and current-clamp recording, and 100 kHz for unitary channel recording. […]
(§7) The hair bundle was deflected by two types of mechanical stimulus, fluid jet and glass probe. […] The hair-bundle-removed OHCs with good condition were further recorded. Examined by a fluid-jet stimulation, the OHCs without obvious MET current were further measured for the leak current.

leak current = target: T3, leak current (Mus musculus, UniProt Q8R4P5); assay: Background leak current in graded Ca2+ and Na+ concentrations (wild-type and Tmc1-knockout OHCs); format: cell-based; conditions: 35 mM [Ca2+]o
T3 construct: the basilar membrane with hair cells was acutely dissected from neonatal mice; endogenous in cells; host or cells: outer hair cells of acutely dissected neonatal mouse cochlea
T3 sequence (Q8R4P5 1-757): T1 sequence (Q8R4P5 1-757)
Procedure: as §5
(§8) In Figure 6A, LiCl and CsCl were 150 mM, completely substituting for NaCl.
The osmotic pressure of each solution was re-adjusted to 300–320 mOsm/kg with sucrose, and the pH was adjusted to 7.4.

MET channel [3] = test system: MET channel; design: method as in Kim and Fettiplace, 2013; conditions: P5 apical OHCs; ref Kim and Fettiplace, 2013; cited from earlier work
MET channel [4] = assay: Unitary MET channel current recording in OHCs; format: cell-based, mouse
Excerpt: as §6, §2
(§9) The hair bundle was deflected by two types of mechanical stimulus, fluid jet and glass probe. The fluid jet stimulation was performed as described previously ([Beurg et al., 2014]). In brief, a 40 Hz sinusoidal wave stimulus was delivered by a 27-mm-diameter piezoelectric disc driven by a home-made piezo amplifier pipette with a tip diameter of 3–5 μm positioned 5–10 μm from the hair bundle to evoke maximum MET currents. […] The actuator was driven with voltage steps that were low-pass filtered at 10 KHz. To avoid bundle damage caused by overstimulation, the glass probe was shaped to have a slightly smaller diameter than the hair bundles, and the stimulation distance was 800 nm for macroscopic current and 100 nm for unitary channel recording. For hair bundle removal, a pipette with 1 μm diameter tip was used to suck away the hair bundles of the target OHCs. The hair-bundle-removed OHCs with good condition were further recorded. Examined by a fluid-jet stimulation, the OHCs without obvious MET current were further measured for the leak current.

leak current in OHCs = target: T4, leak current in OHCs (Mus musculus, UniProt Q8R4P5); assay: Ion-permeation tests of the leak current (ion substitution in the external solution); format: cell-based; conditions: 150 mM NaCl partially or completely replaced (150 mM CsCl; 75 mM Ca2+); compared with Na+
T4 construct: the basilar membrane with hair cells was acutely dissected from neonatal mice; endogenous in cells; host or cells: outer hair cells of acutely dissected neonatal mouse cochlea
T4 sequence (Q8R4P5 1-757): T1 sequence (Q8R4P5 1-757)
Procedure: as §5, §8

MET channel [5] = target: T2, MET channel; assay: MET current in graded Ca2+ and Na+ concentrations; format: cell-based; conditions: wild-type OHCs
Procedure: as §1
The hair bundle was deflected by two types of mechanical stimulus, fluid jet and glass probe. […] The hair-bundle-removed OHCs with good condition were further recorded. Examined by a fluid-jet stimulation, the OHCs without obvious MET current were further measured for the leak current. […]

MET channel [6] = target: T2, MET channel; assay: MET current (IMET) inhibition by blockers, whole-cell voltage clamp of OHCs with glass-probe hair-bundle deflection; format: cell-based
Procedure: All experiments were performed at room temperature (20–25°C). Briefly, the basilar membrane with hair cells was acutely dissected from neonatal mice. […] The acutely isolated or cultured basilar membrane was used for electrophysiological recording within 1 h. […] Hair cells were recorded with a patch-clamp amplifier (EPC 10 USB and Patchmaster software, HEKA Elektronik, Lambrecht/Pfalz, Germany).
as §2
as §9, with “The fluid jet stimulation was performed as described previously ([Beurg et al., 2014]).” left out
as §3, §4

[7] = target: T5, TMC1-mediated leak current (Mus musculus, UniProt Q8R4P5); assay: MET-independent leak current (ILeak) in OHCs, MET channel closed by fluid jet or 100 μM DHS, NMDG subtraction (also by cochlear location and age); format: cell-based; conditions: 0.3 mM Ca2+
T5 construct: the basilar membrane with hair cells was acutely dissected from neonatal mice; endogenous in cells; host or cells: outer hair cells of acutely dissected neonatal mouse cochlea
T5 sequence (Q8R4P5 1-757): T1 sequence (Q8R4P5 1-757)
Procedure: Thus, the IBG may come from the resting MET current. […] A sinusoidal fluid jet deflected the hair bundle back and forth to open and close the MET channels (Figure 3A, inset). The Im was 98 pA at rest (Figure 3A,B), while the Im was 45 pA at fluid-jet-closed status (Figure 3B, #1). […] Thus, the ILeak persisted in either mechanical closure or pharmacological blockade of the MET channel (Figure 3C).
as §5
The sampling rate was 1 kHz for leak current recording, 50 kHz for the IV protocol and current-clamp recording, and 100 kHz for unitary channel recording. The voltage-clamp used a –70 mV holding potential, and the current-clamp was held at 0 pA. […]
as §7

[8] = OHCs, […] Ca2+, holding −70 mV, Hill fit; read-out: IC50, IBG (leak conductance)

T2 sequence (Q4KL25 whole entry partner, one chain of several): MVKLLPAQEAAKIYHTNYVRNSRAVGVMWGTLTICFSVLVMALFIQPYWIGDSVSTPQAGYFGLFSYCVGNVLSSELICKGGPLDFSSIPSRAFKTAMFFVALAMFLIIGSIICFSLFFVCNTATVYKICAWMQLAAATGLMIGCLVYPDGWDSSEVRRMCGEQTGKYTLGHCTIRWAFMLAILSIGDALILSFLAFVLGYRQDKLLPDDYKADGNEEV
T2 sequence (Q8K467 29-153 partner, one chain of several): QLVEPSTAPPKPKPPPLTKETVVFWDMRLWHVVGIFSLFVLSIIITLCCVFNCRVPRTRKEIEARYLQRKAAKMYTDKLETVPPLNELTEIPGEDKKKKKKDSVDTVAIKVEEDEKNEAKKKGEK
T2 sequence (Q9Z309 whole entry partner, one chain of several): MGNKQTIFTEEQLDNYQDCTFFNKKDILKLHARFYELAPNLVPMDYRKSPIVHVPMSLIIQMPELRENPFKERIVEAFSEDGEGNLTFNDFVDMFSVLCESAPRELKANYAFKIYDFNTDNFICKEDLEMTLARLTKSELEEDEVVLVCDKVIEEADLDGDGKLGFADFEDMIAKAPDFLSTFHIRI

N=C(N)NC(=O)c1nc(Cl)c(N)nc1N [Amiloride, amiloride]
effect on the leak current compared with the MET current ([1]; graded concentrations): affected the leak current, albeit at higher concentrations than the MET current

[Ca+2].[Cl-].[Cl-] [Ca^2+, CaCl2]
macroscopic IMET (MET channel [2]; location D05, holding −70 mV): –369 ± 13 pA | macroscopic IMET (MET channel [2]; location D40, holding −70 mV): –384 ± 30 pA | macroscopic IMET (MET channel [2]; location D60, holding −70 mV): –461 ± 31 pA | block of the leak current (leak current): sufficient to block the leak current to an extent similar to TMC1 removal in OHCs | Ca2+ permeability of the MET channel, PCa/PCs (MET channel [3]): around six | unitary MET channel current (MET channel [4]; 35 mM Ca2+, location D05, holding −70 mV): –4.7 ± 0.1 pA | unitary MET channel current (MET channel [4]; 35 mM Ca2+, location D20, holding −70 mV): –4.8 ± 0.1 pA | unitary MET channel current (MET channel [4]; 35 mM Ca2+, location D60, holding −70 mV): –4.9 ± 0.1 pA | unitary MET channel current (MET channel [4]; 35 mM [Ca2+]o, both low-frequency and high-frequency OHCs): ~ 5 pA | size of ILeak conducted by the substituted cation (leak current in OHCs): robustly blocked | [Ca2+]o after which the MET current reached a plateau, sufficient to block the leak current (MET channel [5]): > 10 mM

[Cl-].[Cs+] [Cs^+, CsCl]
size of ILeak conducted by the substituted cation (leak current in OHCs): slightly larger

CN[C@@H]1[C@H](O[C@H]2[C@H](O[C@H]3[C@H](O)[C@@H](O)[C@H](NC(=N)N)[C@@H](O)[C@@H]3NC(=N)N)O[C@@H](C)[C@]2(O)CO)O[C@@H](CO)[C@H](O)[C@H]1O [DHS, dihydrostreptomycin]
IC50 (MET channel [6]; read-out: IC50, IMET): 15 µM | blocking effect on the current baseline ([1]; 100 μM, working concentration that blocks MET channels): no blocking effect | Leak (normalized) ([1]; DHS 100 μM): 0.7251 and 0.66 and 1.086 and 0.62 and 0.8723 and 0.8832 and 0.9258 | IC50 [1, 8]: 487 µM | DHS-NMDG (ILeak subtracted from that closed by 100 μM DHS), mean ± SEM ([7]; holding −70 mV): –65 ± 6 pA | membrane current in 144 Na + 0.1 DHS (IDHS) ([7]; holding −70 mV): 55 pA | DHS-NMDG subtracted current, individual cells ([7]; source data of Figure 3C): -80.6086 pA and -48.8286 pA and -49.155 pA and -61.767 pA and -98.5004 pA and -60.6081 pA and -57.9458 pA and -59.6138 pA

[Gd+3] [Gd3+]
MET (normalized), first block c1-c15 (MET channel [6]; Gd3+ 4000): 0.01958 and 0.0181 and 0.03486 and 0.01803 and 0.02788 and 0.02096 and 0.03255

[Cl][Gd]([Cl])[Cl] [Gd^3+, GdCl3]
effect on the leak current ([1]; [Gd3+]o up to 80 μM): not affected

[La+3] [La3+]
met (normalized) (MET channel [6]; La3+ 4000): 0.01513 and 0.01398 and 0.02694 and 0.01393 and 0.02154 and 0.01619 and 0.02515

[Cl][La]([Cl])[Cl] [La^3+, LaCl3]
IC50 (MET channel [6]; OHCs, 800 nm step deflection, […] Ca2+, holding −70 mV, Hill fit, read-out: IC50, IMET): 259 µM | IC50 [1, 8]: 531 µM

COc1cc2c3cc1Oc1cc(ccc1O)C[C@@H]1c4c(cc(OC)c(O)c4Oc4ccc(cc4)C[C@@H]3N(C)CC2)CC[N+]1(C)C [dTC, d-tubocurarine]
IC50 (MET channel [6]): 6 µM | Leak nor ([1]; dTC 0.01): 1.062 and 1.003 and 1.024 and 0.9706 and 0.8444 and 0.8511 and 0.9123 | effect on the leak current compared with the MET current ([1]; graded concentrations): affected the leak current, albeit at higher concentrations than the MET current | IC50 ([1]; read-out: IC50, IBG (leak conductance); OHCs, […] Ca2+, holding −70 mV, Hill fit): 82 µM
